From ChEMBL document CHEMBL1201862, “PubChem BioAssay data set” (2004)
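Compound exposure: 48 hours, 5 concentrations, 96-well plates. GI50: concentration for 50% inhibition of growth.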 Calls of active or inactive are those of the source. No stated cut-off is given here; in the data, active = GI50 up to about 1.1 µM and inactive = higher.

How the values were obtained:
Experiment in all cases: DTP human tumour cell line panel, 48 h
DU-145 = test system: DU-145
NCI-H460 = test system: NCI-H460
NCI/ADR-RES = test system: NCI/ADR-RES
LOX IMVI = test system: LOX IMVI
HT-29 = test system: HT-29
SK-MEL-5 = test system: SK-MEL-5
SK-MEL-2 = test system: SK-MEL-2
TK-10 = test system: TK-10
HCT-116 = test system: HCT-116
UACC-257 = test system: UACC-257
KM12 = test system: KM12
OVCAR-5 = test system: OVCAR-5
EKVX = test system: EKVX
K562 = test system: K562
BT-549 = test system: BT-549
M14 = test system: M14
Malme-3M = test system: Malme-3M
SK-MEL-28 = test system: SK-MEL-28
SF-268 = test system: SF-268
MDA-MB-435 = test system: MDA-MB-435
T47D = test system: T47D
A549 = test system: A549
U-251 = test system: U-251
HCT-15 = test system: HCT-15
Hs-578T = test system: Hs-578T
UO-31 = test system: UO-31
MDA-N = test system: MDA-N
A498 = test system: A498
786-0 = test system: 786-0
COLO 205 = test system: COLO 205
NCI-H23 = test system: NCI-H23
UACC-62 = test system: UACC-62
SNB-75 = test system: SNB-75
ACHN = test system: ACHN
SW-620 = test system: SW-620
MCF7 = test system: MCF7
NCI-H226 = test system: NCI-H226
SF-295 = test system: SF-295
HCC 2998 = test system: HCC 2998
NCI-H522 = test system: NCI-H522
SF-539 = test system: SF-539
OVCAR-4 = test system: OVCAR-4
PC-3 = test system: PC-3
RPMI-8226 = test system: RPMI-8226
SNB-19 = test system: SNB-19
CAKI-1 = test system: CAKI-1
RXF 393 = test system: RXF 393
OVCAR-3 = test system: OVCAR-3
MDA-MB-231 = test system: MDA-MB-231
OVCAR-8 = test system: OVCAR-8
HOP-92 = test system: HOP-92
SN12C = test system: SN12C
IGROV-1 = test system: IGROV-1
SK-OV-3 = test system: SK-OV-3
MOLT-4 = test system: MOLT-4
CCRF-CEM = test system: CCRF-CEM
HOP-62 = test system: HOP-62
HL-60 = test system: HL-60

Measured: GI50

CCOC1OC(CO)C(O)CC1n1ccc(=O)[nH]c1=O (stereo not drawn)
inactive: DU-145 > 100 µM | NCI-H460 > 100 µM | NCI/ADR-RES > 100 µM | LOX IMVI > 100 µM | HT-29 > 100 µM | SK-MEL-5 > 100 µM | SK-MEL-2 > 100 µM | TK-10 > 100 µM | HCT-116 > 100 µM | UACC-257 > 100 µM | KM12 > 100 µM | OVCAR-5 > 100 µM | EKVX > 100 µM | K562 > 100 µM | BT-549 > 100 µM | M14 > 100 µM | Malme-3M > 100 µM | SK-MEL-28 > 100 µM | SF-268 > 100 µM | MDA-MB-435 > 100 µM | T47D > 100 µM | A549 > 100 µM | U-251 > 100 µM | Hs-578T > 100 µM | UO-31 > 100 µM | MDA-N > 100 µM | A498 > 100 µM | 786-0 > 100 µM | COLO 205 > 100 µM | NCI-H23 > 100 µM | UACC-62 > 100 µM | SNB-75 > 100 µM | ACHN > 100 µM | SW-620 > 100 µM | MCF7 > 100 µM | NCI-H226 > 100 µM | SF-295 > 100 µM | HCC 2998 > 100 µM | NCI-H522 30.3 µM | SF-539 > 100 µM | OVCAR-4 > 100 µM | PC-3 > 100 µM | RPMI-8226 > 100 µM | SNB-19 > 100 µM | CAKI-1 > 100 µM | RXF 393 > 100 µM | OVCAR-3 > 100 µM | MDA-MB-231 > 100 µM | OVCAR-8 > 100 µM | HOP-92 > 100 µM | SN12C > 100 µM | IGROV-1 > 100 µM
> 100 µM: HCT-15

c1ccc([P+](c2ccccc2)(c2ccccc2)c2ccc(-c3ccc([P+](c4ccccc4)(c4ccccc4)c4ccccc4)cc3)cc2)cc1
inactive: DU-145 63.8 µM | NCI-H460 27 µM | NCI/ADR-RES > 100 µM | SK-OV-3 43.2 µM | LOX IMVI 23.3 µM | HT-29 20.7 µM | SK-MEL-5 1.56 µM | SK-MEL-2 24.3 µM | TK-10 34.8 µM | HCT-116 18.2 µM | UACC-257 19.8 µM | KM12 75.5 µM | MOLT-4 > 100 µM | OVCAR-5 67.5 µM | EKVX 37 µM | K562 > 100 µM | BT-549 47.9 µM | M14 44.9 µM | Malme-3M 25.3 µM | SK-MEL-28 49.5 µM | SF-268 58.5 µM | MDA-MB-435 26.7 µM | T47D 41.4 µM | A549 27.7 µM | U-251 7.94 µM | CCRF-CEM 82.4 µM | Hs-578T > 100 µM | MDA-N 29.3 µM | A498 3.97 µM | 786-0 25.9 µM | COLO 205 16.4 µM | NCI-H23 21.9 µM | UACC-62 56.6 µM | ACHN 23.1 µM | SW-620 30.6 µM | MCF7 36.8 µM | NCI-H226 30.8 µM | SF-295 30.2 µM | HOP-62 46.5 µM | HCC 2998 47.4 µM | NCI-H522 18.3 µM | SF-539 40 µM | OVCAR-4 21.5 µM | PC-3 35.5 µM | RPMI-8226 > 100 µM | HL-60 > 100 µM | SNB-19 50.7 µM | CAKI-1 > 100 µM | RXF 393 48.1 µM | OVCAR-3 15.8 µM | MDA-MB-231 32.8 µM | OVCAR-8 19.4 µM | SN12C 26.5 µM | IGROV-1 3.67 µM
> 100 µM: HCT-15
